Measurements reported in US20220403339A1, “3D HUMAN LIVER ORGAN MODEL CONSTRUCTING METHOD, 3D HUMAN LIVER ORGAN MODEL AND USE THEREOF” (priority 2020, published 2022).

Columns and labels:
[1] = clinical classification; cited from earlier work
[2] = tested on: human liver cancer cell lines hepG2; assay type: cell-based; conditions: 100 μM drug; 3D model I-1 (hepG2, 2000 cells per micropore) vs 2D comparison model I; FIG. 8
Description: (§1) 3. […] In a long-time administration test of the 3D human liver organ model, 100 μM is administered once, and if repeated administration is required, a drug is changed in the middle and the concentration is maintained. Each 3D human liver organ model and each 2D liver organ model need to be provided with a blank group, a negative control group and a positive control group, and each group is provided with six replicate wells.
(§2) 4. […] After drug incubation is completed, the culture medium with the drugs is removed, 100 μL of a mixed solution of a cell titer blue stock solution and a complete culture medium in a ratio of 1:5 is added, incubation is conducted for 3 h at 37° C., and a detection wavelength is […]. For example, the Cell titer 3D glo is added to evaluate the ATP of the 3D liver model, so that the action effect of the drugs is evaluated. After drug incubation is completed, the culture medium with the drugs is removed, 100 μL of a mixed solution of a Cell titer 3D glo stock solution and a complete culture medium in a ratio of 1:1 is added, incubation is conducted for 0.5 h at normal temperature, and detection is conducted in a Luminescence mode. For example, a high-content imaging technology is used for imaging characterization of the number of living and dead cells, and characterization of cell mitochondrial activity and membrane potential to evaluate hepatotoxicity drugs. The embodiment is applicable to, but not limited to, the above characterization method.

[3] = tested on: human primary liver cells; conditions: 100 μM drug; 3D model II-2 (human primary liver cells, 5000 cells per micropore) vs 2D comparison model II; FIG. 15
Description: as §1, §2

| Structure (SMILES) | clinically confirmed hepatotoxicity class [1] | hepatotoxicity inhibition on the 3D liver organ model compared with the 2D liver organ comparison model [2] | hepatotoxicity inhibition on the 3D liver organ model compared with the 2D liver organ comparison model [3] |
| --- | --- | --- | --- |
| CN(CCOc1ccc(CC2SC(=O)NC2=O)cc1)c1ccccn1 (stereo not drawn) [compound 6, rosiglitazone] | low-hepatotoxicity | stronger hepatotoxicity inhibition | stronger hepatotoxicity inhibition |
| CN(C)[C@@H]1C(=O)C(C(N)=O)=C(O)[C@@]2(O)C(=O)C3=C(O)c4c(O)cccc4[C@@](C)(O)[C@H]3C[C@@H]12 [compound 9, tetracycline] | low-hepatotoxicity | – | stronger hepatotoxicity inhibition |
| COc1ccccc1Oc1c(NS(=O)(=O)c2ccc(C(C)(C)C)cc2)nc(-c2ncccn2)nc1OCCO [compound 5, bosentan] | low-hepatotoxicity | stronger hepatotoxicity inhibition | stronger hepatotoxicity inhibition |
| Cc1ccc(-c2cc(C(F)(F)F)nn2-c2ccc(S(N)(=O)=O)cc2)cc1 [compound 8, celecoxib] | low-hepatotoxicity | stronger hepatotoxicity inhibition | – |
| CC(=O)Nc1ccc(O)cc1 [compound 15, paracetamol] | – | – | stronger hepatotoxicity inhibition |
| CN(C)CCC=C1c2ccccc2CCc2ccccc21 [compound 12, amitriptyline] | low-hepatotoxicity | stronger hepatotoxicity inhibition | – |
| O=C(OCC(O)CO)c1ccccc1Nc1ccnc2cc(Cl)ccc12 (stereo not drawn) [compound 10, glafenine] | low-hepatotoxicity | – | stronger hepatotoxicity inhibition |
